{"source": "paper PMC6891286", "about": "“Towards the Development of an In vivo Chemical Probe for Cyclin G Associated Kinase (GAK)” (Molecules, 2019)", "assay_in_all_cases": "KINOMEscan", "type_in_all_cases": "binding", "conditions_in_all_cases": "35 at 1 µM; read-out: % inhibition", "key": {"KIT(A829P)": {"biological_target": "T1, KIT(A829P) (Homo sapiens, UniProt P10721, A829P)", "T1 construct": "purchased Eurofins DiscoverX (KINOMEscan)", "T1 sequence (P10721 26-976 A829P)": "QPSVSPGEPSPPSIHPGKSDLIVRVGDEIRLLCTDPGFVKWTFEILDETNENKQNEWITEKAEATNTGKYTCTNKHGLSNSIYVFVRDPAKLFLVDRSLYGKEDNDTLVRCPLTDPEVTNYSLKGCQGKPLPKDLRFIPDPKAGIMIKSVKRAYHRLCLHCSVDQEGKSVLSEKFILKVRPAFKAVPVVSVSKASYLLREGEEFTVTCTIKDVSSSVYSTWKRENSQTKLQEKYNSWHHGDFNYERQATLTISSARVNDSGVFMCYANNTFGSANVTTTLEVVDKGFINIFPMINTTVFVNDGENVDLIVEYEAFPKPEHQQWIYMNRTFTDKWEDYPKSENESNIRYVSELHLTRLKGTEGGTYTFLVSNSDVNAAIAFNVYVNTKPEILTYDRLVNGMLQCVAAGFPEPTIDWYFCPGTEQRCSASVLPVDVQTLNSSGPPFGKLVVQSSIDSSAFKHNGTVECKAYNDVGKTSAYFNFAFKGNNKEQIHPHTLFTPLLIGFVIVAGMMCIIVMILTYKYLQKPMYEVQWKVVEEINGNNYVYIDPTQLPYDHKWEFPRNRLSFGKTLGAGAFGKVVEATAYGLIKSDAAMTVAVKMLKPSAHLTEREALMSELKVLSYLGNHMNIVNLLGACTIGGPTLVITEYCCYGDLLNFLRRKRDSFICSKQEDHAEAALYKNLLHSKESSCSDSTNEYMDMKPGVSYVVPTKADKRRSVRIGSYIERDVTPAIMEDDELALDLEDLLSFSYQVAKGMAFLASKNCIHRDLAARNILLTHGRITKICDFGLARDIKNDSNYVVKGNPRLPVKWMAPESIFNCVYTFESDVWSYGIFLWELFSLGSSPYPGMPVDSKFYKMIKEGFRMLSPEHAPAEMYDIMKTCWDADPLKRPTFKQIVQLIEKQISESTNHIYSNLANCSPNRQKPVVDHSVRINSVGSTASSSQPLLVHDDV", "procedure": "(§1) KinomeScan Assay on 35 was performed as previously described at EuroFins DiscoverX (Fremont, CA, USA)."}, "MKNK2": {"biological_target": "T2, MKNK2 (Homo sapiens, UniProt Q9HBH9)", "T2 construct": "purchased Eurofins DiscoverX (KINOMEscan)", "procedure": "as §1"}, "ICK": {"biological_target": "T3, ICK (Homo sapiens, UniProt Q9UPZ9)", "T3 construct": "purchased Eurofins DiscoverX (KINOMEscan)", "procedure": "as §1"}, "SgK110": {"biological_target": "T4, SgK110 (Homo sapiens, UniProt P0C264)", "T4 construct": "purchased Eurofins DiscoverX (KINOMEscan)", "procedure": "as §1"}, "BTK": {"biological_target": "T5, BTK (Homo sapiens, UniProt Q06187)", "T5 construct": "purchased Eurofins DiscoverX (KINOMEscan)", "procedure": "as §1"}, "PAK6": {"biological_target": "T6, PAK6 (Homo sapiens, UniProt Q9NQU5)", "T6 construct": "purchased Eurofins DiscoverX (KINOMEscan)", "procedure": "as §1"}, "PIK3CA(E545A)": {"biological_target": "T7, PIK3CA(E545A) (Homo sapiens, UniProt P42336, E545A)", "T7 construct": "purchased Eurofins DiscoverX (KINOMEscan)", "procedure": "as §1"}, "MEK4": {"biological_target": "T8, MEK4 (Homo sapiens, UniProt P45985)", "T8 construct": "purchased Eurofins DiscoverX (KINOMEscan)", "procedure": "as §1"}, "S6K1": {"biological_target": "T9, S6K1 (Homo sapiens, UniProt P23443)", "T9 construct": "purchased Eurofins DiscoverX (KINOMEscan)", "procedure": "as §1"}, "PIK3CA(E545K)": {"biological_target": "T10, PIK3CA(E545K) (Homo sapiens, UniProt P42336, E545K)", "T10 construct": "purchased Eurofins DiscoverX (KINOMEscan)", "procedure": "as §1"}, "FLT3(R834Q)": {"biological_target": "T11, FLT3(R834Q) (Homo sapiens, UniProt P36888, R834Q)", "T11 construct": "purchased Eurofins DiscoverX (KINOMEscan)", "procedure": "as §1"}, "KIT(V559D,T670I)": {"biological_target": "T12, KIT(V559D,T670I) (Homo sapiens, UniProt P10721, T670I/V559D)", "T12 construct": "purchased Eurofins DiscoverX (KINOMEscan)", "T12 sequence (P10721 26-976 V559D/T670I)": "as the sequence (P10721 26-976 A829P) above, with V534D, T645I, P804A counted along it", "procedure": "as §1"}, "CSNK1D": {"biological_target": "T13, CSNK1D (Homo sapiens, UniProt P48730)", "T13 construct": "purchased Eurofins DiscoverX (KINOMEscan)", "procedure": "as §1"}, "EPHB6": {"biological_target": "T14, EPHB6 (Homo sapiens, UniProt O15197)", "T14 construct": "purchased Eurofins DiscoverX (KINOMEscan)", "procedure": "as §1"}, "CSF1R-autoinhibited": {"biological_target": "T15, CSF1R-autoinhibited (Homo sapiens, UniProt P07333)", "T15 construct": "purchased Eurofins DiscoverX (KINOMEscan)", "procedure": "as §1"}, "HIPK4": {"biological_target": "T16, HIPK4 (Homo sapiens, UniProt Q8NE63)", "T16 construct": "purchased Eurofins DiscoverX (KINOMEscan)", "procedure": "as §1"}, "DAPK1": {"biological_target": "T17, DAPK1 (Homo sapiens, UniProt P53355)", "T17 construct": "purchased Eurofins DiscoverX (KINOMEscan)", "procedure": "as §1"}, "EPHB3": {"biological_target": "T18, EPHB3 (Homo sapiens, UniProt P54753)", "T18 construct": "purchased Eurofins DiscoverX (KINOMEscan)", "procedure": "as §1"}, "PRKCE": {"biological_target": "T19, PRKCE (Homo sapiens, UniProt Q02156)", "T19 construct": "purchased Eurofins DiscoverX (KINOMEscan)", "procedure": "as §1"}, "TBK1": {"biological_target": "T20, TBK1 (Homo sapiens, UniProt Q9UHD2)", "T20 construct": "purchased Eurofins DiscoverX (KINOMEscan)", "procedure": "as §1"}, "IRAK1": {"biological_target": "T21, IRAK1 (Homo sapiens, UniProt P51617)", "T21 construct": "purchased Eurofins DiscoverX (KINOMEscan)", "procedure": "as §1"}, "TRKB": {"biological_target": "T22, TRKB (Homo sapiens, UniProt Q16620)", "T22 construct": "purchased Eurofins DiscoverX (KINOMEscan)", "procedure": "as §1"}, "EGFR(G719C)": {"biological_target": "T23, EGFR(G719C) (Homo sapiens, UniProt P00533, G719C)", "T23 construct": "purchased Eurofins DiscoverX (KINOMEscan)", "procedure": "as §1"}, "FGFR4": {"biological_target": "T24, FGFR4 (Homo sapiens, UniProt P22455)", "T24 construct": "purchased Eurofins DiscoverX (KINOMEscan)", "procedure": "as §1"}, "CSNK2A2": {"biological_target": "T25, CSNK2A2 (Homo sapiens, UniProt P19784)", "T25 construct": "purchased Eurofins DiscoverX (KINOMEscan)", "procedure": "as §1"}, "EPHA2": {"biological_target": "T26, EPHA2 (Homo sapiens, UniProt P29317)", "T26 construct": "purchased Eurofins DiscoverX (KINOMEscan)", "T26 sequence (P29317 24-976)": "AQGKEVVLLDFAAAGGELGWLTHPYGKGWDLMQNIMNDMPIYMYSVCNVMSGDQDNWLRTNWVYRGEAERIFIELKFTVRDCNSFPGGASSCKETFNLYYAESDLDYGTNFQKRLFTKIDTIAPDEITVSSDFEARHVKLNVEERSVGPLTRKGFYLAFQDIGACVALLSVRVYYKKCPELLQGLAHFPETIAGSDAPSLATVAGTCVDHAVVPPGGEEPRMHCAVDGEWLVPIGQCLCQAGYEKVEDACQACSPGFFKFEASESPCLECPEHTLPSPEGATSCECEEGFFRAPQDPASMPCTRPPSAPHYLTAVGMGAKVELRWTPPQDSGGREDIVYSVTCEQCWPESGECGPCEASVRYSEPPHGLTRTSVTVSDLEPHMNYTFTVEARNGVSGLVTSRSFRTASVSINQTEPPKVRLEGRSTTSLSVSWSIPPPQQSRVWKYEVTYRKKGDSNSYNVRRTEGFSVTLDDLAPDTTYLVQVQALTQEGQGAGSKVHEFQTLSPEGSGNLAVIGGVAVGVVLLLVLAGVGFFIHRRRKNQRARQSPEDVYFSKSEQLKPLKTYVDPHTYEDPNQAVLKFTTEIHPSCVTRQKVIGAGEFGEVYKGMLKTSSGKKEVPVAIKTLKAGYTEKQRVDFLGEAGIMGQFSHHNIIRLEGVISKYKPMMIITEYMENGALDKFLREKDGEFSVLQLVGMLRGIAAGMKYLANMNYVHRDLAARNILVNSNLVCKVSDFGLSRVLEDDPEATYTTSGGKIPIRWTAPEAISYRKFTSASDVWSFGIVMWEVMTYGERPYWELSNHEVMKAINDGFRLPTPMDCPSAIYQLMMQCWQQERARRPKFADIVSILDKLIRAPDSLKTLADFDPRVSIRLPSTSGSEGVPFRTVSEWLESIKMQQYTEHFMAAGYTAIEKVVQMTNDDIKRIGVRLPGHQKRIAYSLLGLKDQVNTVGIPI", "procedure": "as §1"}, "CHEK1": {"biological_target": "T27, CHEK1 (Homo sapiens, UniProt O14757)", "T27 construct": "purchased Eurofins DiscoverX (KINOMEscan)", "procedure": "as §1"}, "FLT3(N841I)": {"biological_target": "T28, FLT3(N841I) (Homo sapiens, UniProt P36888, N841I)", "T28 construct": "purchased Eurofins DiscoverX (KINOMEscan)", "procedure": "as §1"}, "MYO3B": {"biological_target": "T29, MYO3B (Homo sapiens, UniProt Q8WXR4)", "T29 construct": "purchased Eurofins DiscoverX (KINOMEscan)", "procedure": "as §1"}, "SNRK": {"biological_target": "T30, SNRK (Homo sapiens, UniProt Q9NRH2)", "T30 construct": "purchased Eurofins DiscoverX (KINOMEscan)", "procedure": "as §1"}, "MYLK4": {"biological_target": "T31, MYLK4 (Homo sapiens, UniProt Q86YV6)", "T31 construct": "purchased Eurofins DiscoverX (KINOMEscan)", "procedure": "as §1"}, "ULK1": {"biological_target": "T32, ULK1 (Homo sapiens, UniProt O75385)", "T32 construct": "purchased Eurofins DiscoverX (KINOMEscan)", "procedure": "as §1"}, "LYN": {"biological_target": "T33, LYN (Homo sapiens, UniProt P07948)", "T33 construct": "purchased Eurofins DiscoverX (KINOMEscan)", "procedure": "as §1"}, "ZAP70": {"biological_target": "T34, ZAP70 (Homo sapiens, UniProt P43403)", "T34 construct": "purchased EuroFins DiscoverX (Fremont, CA, USA)", "procedure": "as §1"}, "PIK3C2B": {"biological_target": "T35, PIK3C2B (Homo sapiens, UniProt O00750)", "T35 construct": "purchased Eurofins DiscoverX (KINOMEscan)", "procedure": "as §1"}, "BRAF(V600E)": {"biological_target": "T36, BRAF(V600E) (Homo sapiens, UniProt P15056, V600E)", "T36 construct": "purchased Eurofins DiscoverX (KINOMEscan)", "T36 sequence (P15056 whole entry V600E)": "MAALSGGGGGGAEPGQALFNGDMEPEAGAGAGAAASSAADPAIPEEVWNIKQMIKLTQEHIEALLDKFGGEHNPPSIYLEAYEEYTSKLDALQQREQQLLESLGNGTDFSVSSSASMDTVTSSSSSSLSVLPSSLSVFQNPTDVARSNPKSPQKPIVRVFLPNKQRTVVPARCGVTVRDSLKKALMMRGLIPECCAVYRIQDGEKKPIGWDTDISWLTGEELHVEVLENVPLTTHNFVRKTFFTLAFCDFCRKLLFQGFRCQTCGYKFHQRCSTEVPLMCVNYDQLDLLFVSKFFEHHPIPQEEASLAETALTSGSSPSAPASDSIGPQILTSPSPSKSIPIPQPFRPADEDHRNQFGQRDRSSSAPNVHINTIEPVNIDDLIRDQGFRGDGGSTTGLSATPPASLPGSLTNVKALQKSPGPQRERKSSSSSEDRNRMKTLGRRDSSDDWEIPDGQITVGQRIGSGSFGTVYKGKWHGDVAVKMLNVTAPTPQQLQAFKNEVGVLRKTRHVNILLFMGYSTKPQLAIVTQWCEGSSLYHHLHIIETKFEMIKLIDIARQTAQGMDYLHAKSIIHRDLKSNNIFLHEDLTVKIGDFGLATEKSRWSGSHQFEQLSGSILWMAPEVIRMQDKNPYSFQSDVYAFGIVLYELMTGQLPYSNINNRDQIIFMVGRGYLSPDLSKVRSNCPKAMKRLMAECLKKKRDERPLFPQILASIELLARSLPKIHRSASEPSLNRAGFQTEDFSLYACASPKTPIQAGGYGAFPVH", "procedure": "as §1"}, "DCAMKL1": {"biological_target": "T37, DCAMKL1 (Homo sapiens, UniProt O15075)", "T37 construct": "purchased Eurofins DiscoverX (KINOMEscan)", "procedure": "as §1"}, "[1]": {"biological_target": "T38, ABL1(E255K)-phosphorylated (Homo sapiens, UniProt P00519, E255K)", "T38 construct": "purchased Eurofins DiscoverX (KINOMEscan)", "T38 sequence (P00519 whole entry E255K)": "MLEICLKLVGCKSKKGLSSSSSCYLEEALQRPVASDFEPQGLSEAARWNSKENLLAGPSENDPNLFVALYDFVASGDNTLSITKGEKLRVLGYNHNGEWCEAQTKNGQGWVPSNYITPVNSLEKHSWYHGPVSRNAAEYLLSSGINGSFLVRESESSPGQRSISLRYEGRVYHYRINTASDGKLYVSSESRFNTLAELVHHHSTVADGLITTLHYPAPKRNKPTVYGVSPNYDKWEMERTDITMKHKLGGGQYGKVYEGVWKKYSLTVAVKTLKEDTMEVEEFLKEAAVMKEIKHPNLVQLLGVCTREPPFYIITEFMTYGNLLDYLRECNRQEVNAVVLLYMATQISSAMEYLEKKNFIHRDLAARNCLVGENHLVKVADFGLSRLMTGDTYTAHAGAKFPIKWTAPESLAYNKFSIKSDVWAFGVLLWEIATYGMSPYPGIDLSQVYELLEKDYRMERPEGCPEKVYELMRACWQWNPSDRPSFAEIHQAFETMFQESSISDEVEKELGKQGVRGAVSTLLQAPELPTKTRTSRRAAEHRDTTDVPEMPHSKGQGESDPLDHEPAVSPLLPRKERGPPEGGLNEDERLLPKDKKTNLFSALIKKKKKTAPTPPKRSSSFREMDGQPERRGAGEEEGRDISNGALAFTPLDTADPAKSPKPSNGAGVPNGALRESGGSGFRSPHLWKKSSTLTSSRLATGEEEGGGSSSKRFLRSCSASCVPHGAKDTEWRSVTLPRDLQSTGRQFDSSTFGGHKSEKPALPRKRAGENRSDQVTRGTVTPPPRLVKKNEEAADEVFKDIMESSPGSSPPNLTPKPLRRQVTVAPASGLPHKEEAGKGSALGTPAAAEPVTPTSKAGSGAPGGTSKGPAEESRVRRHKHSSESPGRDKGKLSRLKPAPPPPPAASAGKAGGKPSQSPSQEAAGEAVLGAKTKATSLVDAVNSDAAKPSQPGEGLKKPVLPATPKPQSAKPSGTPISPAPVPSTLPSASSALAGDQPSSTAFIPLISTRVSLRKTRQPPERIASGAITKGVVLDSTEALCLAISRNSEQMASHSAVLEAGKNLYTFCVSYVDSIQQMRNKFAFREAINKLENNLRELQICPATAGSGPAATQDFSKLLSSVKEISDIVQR", "procedure": "as §1"}, "PDGFRB": {"biological_target": "T39, PDGFRB (Homo sapiens, UniProt P09619)", "T39 construct": "purchased Eurofins DiscoverX (KINOMEscan)", "procedure": "as §1"}, "CSK": {"biological_target": "T40, CSK (Homo sapiens, UniProt P41240)", "T40 construct": "purchased Eurofins DiscoverX (KINOMEscan)", "T40 sequence (P41240 whole entry)": "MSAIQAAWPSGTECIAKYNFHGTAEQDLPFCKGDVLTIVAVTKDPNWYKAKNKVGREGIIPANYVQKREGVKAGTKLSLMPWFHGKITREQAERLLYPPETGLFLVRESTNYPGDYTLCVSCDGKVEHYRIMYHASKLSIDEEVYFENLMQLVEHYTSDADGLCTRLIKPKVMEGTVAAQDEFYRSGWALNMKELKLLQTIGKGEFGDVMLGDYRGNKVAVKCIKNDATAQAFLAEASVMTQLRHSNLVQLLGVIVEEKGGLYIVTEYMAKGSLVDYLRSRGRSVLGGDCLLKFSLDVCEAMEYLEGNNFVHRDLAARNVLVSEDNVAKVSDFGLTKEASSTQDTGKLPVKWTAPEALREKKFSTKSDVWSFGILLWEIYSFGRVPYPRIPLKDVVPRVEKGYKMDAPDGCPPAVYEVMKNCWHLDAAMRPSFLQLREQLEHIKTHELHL", "procedure": "as §1"}, "WNK3": {"biological_target": "T41, WNK3 (Homo sapiens, UniProt Q9BYP7)", "T41 construct": "purchased Eurofins DiscoverX (KINOMEscan)", "procedure": "as §1"}, "PAK3": {"biological_target": "T42, PAK3 (Homo sapiens, UniProt O75914)", "T42 construct": "purchased Eurofins DiscoverX (KINOMEscan)", "T42 sequence (O75914 whole entry)": "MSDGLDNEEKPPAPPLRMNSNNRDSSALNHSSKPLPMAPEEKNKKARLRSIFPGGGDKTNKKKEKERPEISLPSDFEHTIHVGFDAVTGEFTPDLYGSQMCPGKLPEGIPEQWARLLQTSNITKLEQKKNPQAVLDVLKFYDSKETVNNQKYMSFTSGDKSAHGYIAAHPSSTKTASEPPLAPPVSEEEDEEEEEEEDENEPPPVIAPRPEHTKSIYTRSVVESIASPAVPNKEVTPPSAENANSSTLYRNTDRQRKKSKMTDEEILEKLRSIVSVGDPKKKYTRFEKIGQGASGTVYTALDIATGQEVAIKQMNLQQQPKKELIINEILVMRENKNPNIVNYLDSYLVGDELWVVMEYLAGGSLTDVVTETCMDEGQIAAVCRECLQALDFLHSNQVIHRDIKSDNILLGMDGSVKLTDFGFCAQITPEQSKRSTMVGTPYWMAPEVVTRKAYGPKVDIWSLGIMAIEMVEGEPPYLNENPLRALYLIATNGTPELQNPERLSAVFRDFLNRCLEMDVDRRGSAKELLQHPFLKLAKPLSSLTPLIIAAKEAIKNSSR", "procedure": "as §1"}}}
{"smiles": "Brc1ccc2nccc(Nc3ccc4cn[nH]c4c3)c2c1", "note": "[Compound 35, 6-Bromo-N-(1H-indazol-6-yl)quinolin-4-amine]", "values": [{"measurement": "activity at 1 µM", "setting": "KIT(A829P)", "result": 100, "unit": "%"}, {"measurement": "activity at 1 µM", "setting": "MKNK2", "result": 63, "unit": "%"}, {"measurement": "activity at 1 µM", "setting": "ICK", "result": 100, "unit": "%"}, {"measurement": "activity at 1 µM", "setting": "SgK110", "result": 100, "unit": "%"}, {"measurement": "activity at 1 µM", "setting": "BTK", "result": 100, "unit": "%"}, {"measurement": "activity at 1 µM", "setting": "PAK6", "result": 100, "unit": "%"}, {"measurement": "activity at 1 µM", "setting": "PIK3CA(E545A)", "result": 98, "unit": "%"}, {"measurement": "activity at 1 µM", "setting": "MEK4", "result": 100, "unit": "%"}, {"measurement": "activity at 1 µM", "setting": "S6K1", "result": 91, "unit": "%"}, {"measurement": "activity at 1 µM", "setting": "PIK3CA(E545K)", "result": 66, "unit": "%"}, {"measurement": "activity at 1 µM", "setting": "FLT3(R834Q)", "result": 83, "unit": "%"}, {"measurement": "activity at 1 µM", "setting": "KIT(V559D,T670I)", "result": 100, "unit": "%"}, {"measurement": "activity at 1 µM", "setting": "CSNK1D", "result": 94, "unit": "%"}, {"measurement": "activity at 1 µM", "setting": "EPHB6", "result": 100, "unit": "%"}, {"measurement": "activity at 1 µM", "setting": "CSF1R-autoinhibited", "result": 100, "unit": "%"}, {"measurement": "activity at 1 µM", "setting": "HIPK4", "result": 57, "unit": "%"}, {"measurement": "activity at 1 µM", "setting": "DAPK1", "result": 100, "unit": "%"}, {"measurement": "activity at 1 µM", "setting": "EPHB3", "result": 100, "unit": "%"}, {"measurement": "activity at 1 µM", "setting": "PRKCE", "result": 95, "unit": "%"}, {"measurement": "activity at 1 µM", "setting": "TBK1", "result": 76, "unit": "%"}, {"measurement": "activity at 1 µM", "setting": "IRAK1", "result": 100, "unit": "%"}, {"measurement": "activity at 1 µM", "setting": "TRKB", "result": 85, "unit": "%"}, {"measurement": "activity at 1 µM", "setting": "EGFR(G719C)", "result": 83, "unit": "%"}, {"measurement": "activity at 1 µM", "setting": "FGFR4", "result": 100, "unit": "%"}, {"measurement": "activity at 1 µM", "setting": "CSNK2A2", "result": 100, "unit": "%"}, {"measurement": "activity at 1 µM", "setting": "EPHA2", "result": 100, "unit": "%"}, {"measurement": "activity at 1 µM", "setting": "CHEK1", "result": 100, "unit": "%"}, {"measurement": "activity at 1 µM", "setting": "FLT3(N841I)", "result": 90, "unit": "%"}, {"measurement": "activity at 1 µM", "setting": "MYO3B", "result": 100, "unit": "%"}, {"measurement": "activity at 1 µM", "setting": "SNRK", "result": 100, "unit": "%"}, {"measurement": "activity at 1 µM", "setting": "MYLK4", "result": 100, "unit": "%"}, {"measurement": "activity at 1 µM", "setting": "ULK1", "result": 91, "unit": "%"}, {"measurement": "activity at 1 µM", "setting": "LYN", "result": 100, "unit": "%"}, {"measurement": "activity at 1 µM", "setting": "ZAP70", "result": 100, "unit": "%"}, {"measurement": "activity at 1 µM", "setting": "PIK3C2B", "result": 100, "unit": "%"}, {"measurement": "activity at 1 µM", "setting": "BRAF(V600E)", "result": 80, "unit": "%"}, {"measurement": "activity at 1 µM", "setting": "DCAMKL1", "result": 99, "unit": "%"}, {"measurement": "activity at 1 µM", "setting": "[1]", "result": 44, "unit": "%"}, {"measurement": "activity at 1 µM", "setting": "PDGFRB", "result": 100, "unit": "%"}, {"measurement": "activity at 1 µM", "setting": "CSK", "result": 100, "unit": "%"}, {"measurement": "activity at 1 µM", "setting": "WNK3", "result": 92, "unit": "%"}, {"measurement": "activity at 1 µM", "setting": "PAK3", "result": 100, "unit": "%"}]}
